Molecules are shown by their SMILES. Read-outs that look alike come from different tables or passages of the source.

Assay type in all cases: in vivo
One assay concerns Ambrosia artemisiifolia. The assay is described as follows: Greenhouse pre-emergence (PRE) herbicidal test on AMBEL. Particulars: Ambrosia artemisiifolia, pre-emergence, 480 h, PRE, AMBEL, use rate 1 gai/ha, 20 DAT.
The subject of assay [1] is Setaria viridis. Description: Greenhouse pre-emergence (PRE) herbicidal test on SETVI. The following applies: Setaria viridis, pre-emergence, 480 h; PRE, SETVI, use rate 2 gai/ha, 20 DAT; read-out: % activity. The essentials: (§1)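 First, each species was sown separately in loamy sand containing about 3.0% humus. Then the aqueous active compound was applied by finely distributing nozzles straight after sowing, pots were gently irrigated and covered with transparent hoods, and injury was assessed on a 0–100 scale at 20 DAT.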

A further assay concerns Ipomoea hederacea. Description: Greenhouse pre-emergence (PRE) herbicidal test on IPOHE. The following applies: PRE, IPOHE, 20 DAT. The essentials:
as §1

For a further assay, the system named is Alopecurus myosuroides. The assay is described as follows: Greenhouse pre-emergence (PRE) herbicidal test on ALOMY. Put shortly: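 Herbicidal effect was assessed 20 DAT after pre-emergence treatment of sown pots, using a 0-100 scale where 100 means no emergence or destruction of at least the above-ground parts.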
The next assay has as its system Echinochloa crus-galli. Description: Greenhouse post-emergence (POST) herbicidal test on ECHCG. The following applies: Echinochloa crus-galli, post-emergence; for inhibition at 1 g/ha: use rate 1 gai/ha. The essentials:
(§2)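 For this test, compounds formulated as a 5% by weight emulsion concentrate were diluted into spray liquor and applied post-emergence. Species were kept at 10-25° C or 20-35° C and injury was scored at 20 DAT on a 0–100 scale.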

The next assay has as its system Polygonum convolvulus. Description: Greenhouse pre-emergence (PRE) herbicidal test on POLCO. Particulars: Fallopia convolvulus, pre-emergence, use rate 1 gai/ha. The text has this: (§3) The culture containers used were plastic pots containing loamy sand with approximately 3.0% of humus as substrate. The seeds of the test plants were sown separately for each species.
For the pre-emergence treatment, the active compounds, suspended or emulsified in water, were applied directly after sowing by means of finely distributing nozzles. The containers were irrigated gently to promote germination and growth and subsequently covered with transparent plastic hoods until the plants had rooted. This cover caused uniform germination of the test plants unless this was adversely affected by the active compounds.
(§4) Depending on the species, the plants were kept at 10-25° C. and 20-35° C., respectively.
(§5) The test period extended over 2 to 4 weeks. During this time, the plants were tended and their response to the individual treatments was evaluated.
(§6) Evaluation was carried out using a scale from 0 to 100. 100 means no emergence of the plants, or complete destruction of at least the above-ground parts, and 0 means no damage or normal course of growth. A good herbicidal activity is given at values of at least 70, and very good herbicidal activity is given at values of at least 85.
(§7) If not stated differently, the respective components A and B, and if appropriate, C were formulated as a 5% by weight strength emulsion concentrate and, with addition of the amount of solvent system, introduced into the spray liquor used for applying the active compound.
(§8) As indicated application was either post emergent (POST) at the respective growth stage (GS) of the weed (BBCH code), or pre-emergent (PRE).
(§9) Assessment was 20 days after treatment (DAT).

The test system of another assay is Commelina benghalensis. The assay is described as follows: Greenhouse post-emergence (POST) herbicidal test on COMBE. Particulars: 480 h, use rate 16 gai/ha, 20 DAT. On the procedure: as §3
(§10) For the post-emergence treatment, the test plants were grown to a plant height of from 3 to 15 cm, depending on the plant habit, and only then treated with the active compounds which had been suspended or emulsified in water. To this end, the test plants were either sown directly, and grown in the same containers, or they were first grown separately as seedlings and transplanted into the test containers a few days prior to treatment.
as §4, §5, §6, §7, §8, §9

For a further assay, the system named is Euphorbia heterophylla. The assay is described as follows: Greenhouse post-emergence (POST) herbicidal test on EPHHL. Particulars: Euphorbia heterophylla, post-emergence, POST, EPHHL; for inhibition at 2 g/ha: use rate 2 gai/ha, read-out: % activity. Put shortly: as §2
For assay [2], the system named is Setaria viridis. Description: Greenhouse post-emergence (POST) herbicidal test on SETVI. Particulars: 480 h, 20 DAT. On the procedure: as §3, §10, §4, §5, §6, §7, §8, §9
The subject of another assay is SETFA. Description: Greenhouse pre-emergence (PRE) herbicidal test on SETFA. The following applies: Setaria faberi, use rate 1 gai/ha.
A further assay has as its system Galium aparine. Description: Greenhouse pre-emergence (PRE) herbicidal test on GALAP. Particulars: Galium aparine, pre-emergence; PRE; GALAP; use rate 1 gai/ha. Put shortly: as §1
For a further assay, the system named is Avena fatua. Description: Greenhouse pre-emergence (PRE) herbicidal test on AVEFA. The following applies: use rate 4 gai/ha. Put shortly: as §1

For `COc1c(F)cc(F)c(F)c1Nc1nc(N)nc(C(C)(C)F)n1` [Compound I-1], the inhibition at 1 g/ha in the assay on Ambrosia artemisiifolia amounted to 10%; in the assay with Alopecurus myosuroides (Alopecurus myosuroides, pre-emergence, 480 h, PRE, ALOMY, use rate 1 gai/ha, 20 DAT) it was 10%; in the assay with Alopecurus myosuroides (Alopecurus myosuroides, pre-emergence, ALOMY PRE, use rate 1 gai/ha), 15%; in the assay with Echinochloa crus-galli (ECHCG POST, read-out: % activity) it was 30%; in the assay on Echinochloa crus-galli (POST, ECHCG, read-out: % activity), 10%; in the assay on Polygonum convolvulus, 50%. The results for the inhibition at 1 g/ha with SETFA and in the assay on Galium aparine were 60% and 0%, respectively. In addition, the inhibition at 2 g/ha worked out at 20% in the assay with Setaria viridis [1]; 10% in the assay with Echinochloa crus-galli (POST, ECHCG, use rate 2 gai/ha, read-out: % activity); 50% in the assay on Euphorbia heterophylla (480 h, 20 DAT); 40% in the assay with Euphorbia heterophylla; 5% in the assay with Setaria viridis [2] (use rate 2 gai/ha). In addition, the inhibition at 8 g/ha in the assay on Ipomoea hederacea (Ipomoea hederacea, pre-emergence, 480 h, use rate 8 gai/ha) amounted to 70%. The inhibition at 16 g/ha in the assay with Ipomoea hederacea (Ipomoea hederacea, pre-emergence, 480 h, use rate 16 gai/ha) turned out to be 75%; in the assay with Commelina benghalensis, 75%. Moreover, the “% activity” value with Ipomoea hederacea (use rate 16 gai/ha) is recorded as 60%; with Alopecurus myosuroides (ALOMY PRE, use rate 1 gai/ha), 30%. Besides, the inhibition at 4 g/ha in the assay on Alopecurus myosuroides (Alopecurus myosuroides, pre-emergence, ALOMY PRE, use rate 4 gai/ha) was 90%; with Echinochloa crus-galli (480 h, POST, ECHCG, use rate 4 gai/ha, 20 DAT) it was 0%; with Euphorbia heterophylla (480 h, use rate 4 gai/ha, 20 DAT), 60%; in the assay on Setaria viridis [2] (use rate 4 gai/ha), 70%; in the assay with Avena fatua, 70%.

The values above are taken from patent publication US20260007133A1, “HERBICIDAL COMPOSITION COMPRISING AZINE COMPOUNDS” (BASF SE, priority 2022, published 2026).
